# Reference: paper PMC5218480 (PLoS ONE, 2017)
# System: MV-4-11 cells
# Test: Gene expression microarray analysis (Affymetrix PrimeView) and GSEA
# Format: cell-based, human
# Design: RFU PODN (11730768_x_at) / Fold change /veh PODN (11730768_x_at) / RFU LINC00158 (11744669_a_at) / Fold change /veh LINC00158 (11744669_a_at) / RFU DUSP10 (11751237_a_at) / Fold change /veh DUSP10 (11751237_a_at) / RFU ID3 (11757404_x_at) / Fold change /veh ID3 (11757404_x_at) / RFU PLEKHG5 (11737974_s_at) / Fold change /veh PLEKHG5 (11737974_s_at) / RFU LRRC4B (11730491_at) / Fold change /veh LRRC4B (11730491_at) / RFU GIMAP4 (11747438_a_at) / Fold change /veh GIMAP4 (11747438_a_at) / RFU KRT8 (11758183_x_at) / Fold change /veh KRT8 (11758183_x_at) / RFU CNN1 (11734310_a_at) / Fold change /veh CNN1 (11734310_a_at) / RFU VPS37D (11726825_at) / Fold change /veh VPS37D (11726825_at) / RFU C10orf10 (11716522_x_at) / Fold change /veh C10orf10 (11716522_x_at) / RFU KIR2DL2 /// KIR2DL4 /// KIR2DL5A /// KIR2DL5B /// KIR2DS1 /// KIR2DS2 /// KIR2DS3 /// KIR2DS4 /// KIR3DL3 /// KIR3DL3 /// KIR3DS1 (11738374_at) / Fold change /veh KIR2DL2 /// KIR2DL4 /// KIR2DL5A /// KIR2DL5B /// KIR2DS1 /// KIR2DS2 /// KIR2DS3 /// KIR2DS4 /// KIR3DL3 /// KIR3DL3 /// KIR3DS1 (11738374_at) / RFU C1QL1 (11718748_at) / Fold change /veh C1QL1 (11718748_at) / RFU TMPRSS4 (11747572_a_at) / Fold change /veh TMPRSS4 (11747572_a_at) / RFU HAMP (11756126_x_at) / Fold change /veh HAMP (11756126_x_at) / RFU RNFT2 (11725882_a_at) / Fold change /veh RNFT2 (11725882_a_at) / RFU NR4A2 (11747474_a_at) / Fold change /veh NR4A2 (11747474_a_at) / RFU ABCC12 (11746883_a_at) / Fold change /veh ABCC12 (11746883_a_at) / RFU TMEM136 (11760407_x_at) / Fold change /veh TMEM136 (11760407_x_at) / RFU CLDN22 /// WWC2 (11732394_at) / Fold change /veh CLDN22 /// WWC2 (11732394_at) / RFU HLA-DPB1 (11760878_x_at) / Fold change /veh HLA-DPB1 (11760878_x_at) / RFU SPINT1 (11716480_a_at) / Fold change /veh SPINT1 (11716480_a_at) / RFU GAP43 (11754022_s_at) / Fold change /veh GAP43 (11754022_s_at) / RFU A4GNT (11735810_at) / Fold change /veh A4GNT (11735810_at) / RFU PRB3 (11715151_x_at) / Fold change /veh PRB3 (11715151_x_at) / RFU TUBB4B (11761932_at) / Fold change /veh TUBB4B (11761932_at) / RFU CAPN14 (11732068_a_at) / Fold change /veh CAPN14 (11732068_a_at) / RFU TMCC2 (11721928_a_at) / Fold change /veh TMCC2 (11721928_a_at) / RFU IRGQ (11745062_a_at) / Fold change /veh IRGQ (11745062_a_at) / RFU FAM174B (11720279_a_at) / Fold change /veh FAM174B (11720279_a_at) / RFU TMPRSS4 (11748680_a_at) / Fold change /veh TMPRSS4 (11748680_a_at) / RFU FAM212B (11763350_a_at) / Fold change /veh FAM212B (11763350_a_at) / RFU PLEKHG5 (11743358_a_at) / Fold change /veh PLEKHG5 (11743358_a_at) / RFU ZSCAN30 (11745921_a_at) / Fold change /veh ZSCAN30 (11745921_a_at) / RFU CMKLR1 (11741424_a_at) / Fold change /veh CMKLR1 (11741424_a_at) / RFU LOC101060620 /// MAPK8IP1 (11723275_at) / Fold change /veh LOC101060620 /// MAPK8IP1 (11723275_at) / RFU SPTSSB (11747773_x_at) / Fold change /veh SPTSSB (11747773_x_at) / RFU PRSS12 (11739890_at) / Fold change /veh PRSS12 (11739890_at) / RFU BIN1 (11741810_x_at) / Fold change /veh BIN1 (11741810_x_at) / RFU WNT11 (11732464_a_at) / Fold change /veh WNT11 (11732464_a_at) / RFU C10orf10 (11716521_a_at) / Fold change /veh C10orf10 (11716521_a_at) / RFU C5orf56 (11738089_at) / Fold change /veh C5orf56 (11738089_at) / RFU CYB561 (11721691_x_at) / Fold change /veh CYB561 (11721691_x_at) / RFU ANKRD19P (11752326_a_at) / Fold change /veh ANKRD19P (11752326_a_at) / RFU OR2T12 /// OR2T33 /// OR2T8 (11738714_s_at) / Fold change /veh OR2T12 /// OR2T33 /// OR2T8 (11738714_s_at) / RFU VCAN (11748164_a_at) / Fold change /veh VCAN (11748164_a_at) / RFU JSRP1 (11732532_at) / Fold change /veh JSRP1 (11732532_at) / RFU KRTAP10-11 (11738290_x_at) / Fold change /veh KRTAP10-11 (11738290_x_at) / RFU MYO3A (11730013_a_at) / Fold change /veh MYO3A (11730013_a_at) / RFU EBF3 (11725865_a_at) / Fold change /veh EBF3 (11725865_a_at) / RFU CAMK2N1 (11719241_x_at) / Fold change /veh CAMK2N1 (11719241_x_at) / RFU C5orf56 (11738088_a_at) / Fold change /veh C5orf56 (11738088_a_at) / RFU OLFML3 (11715873_a_at) / Fold change /veh OLFML3 (11715873_a_at) / RFU LOC100653217 /// NTM (11731650_a_at) / Fold change /veh LOC100653217 /// NTM (11731650_a_at) / RFU MAPK11 (11762145_a_at) / Fold change /veh MAPK11 (11762145_a_at) / RFU FIZ1 (11724087_x_at) / Fold change /veh FIZ1 (11724087_x_at) / RFU OASL (11726364_x_at) / Fold change /veh OASL (11726364_x_at) / RFU SOX15 (11748057_x_at) / Fold change /veh SOX15 (11748057_x_at) / RFU CD79A (11719716_a_at) / Fold change /veh CD79A (11719716_a_at) / RFU HIST1H1D (11736915_at) / Fold change /veh HIST1H1D (11736915_at) / RFU CASKIN2 (11723855_a_at) / Fold change /veh CASKIN2 (11723855_a_at) / RFU LOC730098 (11760151_x_at) / Fold change /veh LOC730098 (11760151_x_at) / RFU OR4N2 (11742367_at) / Fold change /veh OR4N2 (11742367_at) / RFU PRRT2 (11749266_a_at) / Fold change /veh PRRT2 (11749266_a_at) / RFU SNX32 (11753110_a_at) / Fold change /veh SNX32 (11753110_a_at) / RFU CDHR5 (11726645_a_at) / Fold change /veh CDHR5 (11726645_a_at) / RFU RCAN1 (11760418_a_at) / Fold change /veh RCAN1 (11760418_a_at) / RFU FAM167A (11723789_a_at) / Fold change /veh FAM167A (11723789_a_at) / RFU FAM26E (11764081_at) / Fold change /veh FAM26E (11764081_at) / RFU ISYNA1 (11749810_s_at) / Fold change /veh ISYNA1 (11749810_s_at) / RFU ACY1 (11761880_at) / Fold change /veh ACY1 (11761880_at) / RFU 11764098_at / Fold change /veh 11764098_at / RFU SAMD14 (11745864_x_at) / Fold change /veh SAMD14 (11745864_x_at) / RFU NPB (11741838_a_at) / Fold change /veh NPB (11741838_a_at) / RFU TMPRSS6 (11731388_a_at) / Fold change /veh TMPRSS6 (11731388_a_at) / RFU KRTAP10-2 (11738614_at) / Fold change /veh KRTAP10-2 (11738614_at) / RFU ARHGAP8 /// PRR5-ARHGAP8 (11727945_x_at) / Fold change /veh ARHGAP8 /// PRR5-ARHGAP8 (11727945_x_at) / RFU KRTAP5-7 /// NADSYN1 (11734609_at) / Fold change /veh KRTAP5-7 /// NADSYN1 (11734609_at) / RFU RASL12 (11751679_a_at) / Fold change /veh RASL12 (11751679_a_at) / RFU CDKN2B (11736163_a_at) / Fold change /veh CDKN2B (11736163_a_at) / RFU PRF1 (11729649_at) / Fold change /veh PRF1 (11729649_at) / RFU, ZNF638 /// ZNF638-IT1 / Fold change vs veh, ZNF638 /// ZNF638-IT1 / RFU, PANK3 / Fold change vs veh, PANK3 / RFU, SH3YL1 / Fold change vs veh, SH3YL1 / RFU, ZEB2 / Fold change vs veh, ZEB2 / RFU, NRIP1 / Fold change vs veh, NRIP1 / RFU, PTTG1IP / Fold change vs veh, PTTG1IP / RFU, CAPN2 / Fold change vs veh, CAPN2 / RFU, MED14 / Fold change vs veh, MED14 / RFU, SNORA58 / Fold change vs veh, SNORA58 / RFU, C1orf63 / Fold change vs veh, C1orf63 / RFU, LRRFIP1 / Fold change vs veh, LRRFIP1 / RFU, NDUFAF7 / Fold change vs veh, NDUFAF7 / RFU, SLC12A2 / Fold change vs veh, SLC12A2 / RFU, IBTK / Fold change vs veh, IBTK / RFU, ESF1 / Fold change vs veh, ESF1 / Fold change vs veh, TMEM50B / RFU, TAOK1 / Fold change vs veh, TAOK1 / RFU, ACBD3 / Fold change vs veh, ACBD3 / RFU, TMA16 / Fold change vs veh, TMA16 / RFU, RWDD3 / Fold change vs veh, RWDD3 / RFU, BCAT1 / Fold change vs veh, BCAT1 / RFU, EDEM3 / Fold change vs veh, EDEM3 / RFU, TMEM33 / Fold change vs veh, TMEM33 / RFU, WDR75 / Fold change vs veh, WDR75 / RFU, AHCTF1 / Fold change vs veh, AHCTF1 / RFU, TFRC / Fold change vs veh, TFRC / RFU, ZDHHC17 / Fold change vs veh, ZDHHC17 / RFU, NOM1 / Fold change vs veh, NOM1 / RFU, ARL8B / Fold change vs veh, ARL8B / RFU, ZBTB11 / Fold change vs veh, ZBTB11 / RFU, TAMM41 / Fold change vs veh, TAMM41 / RFU, KIAA1704 /// LOC100996395 / Fold change vs veh, KIAA1704 /// LOC100996395 / RFU, ING1 / Fold change vs veh, ING1 / RFU, TRMT61B / Fold change vs veh, TRMT61B / RFU, FUBP3 / Fold change vs veh, FUBP3 / RFU, TP53 / Fold change vs veh, TP53 / RFU, TNKS2 / Fold change vs veh, TNKS2 / RFU, ZFP14 / Fold change vs veh, ZFP14 / RFU, ACTR2 / Fold change vs veh, ACTR2 / RFU, PPP3R1 / Fold change vs veh, PPP3R1 / RFU, PIK3R1 / Fold change vs veh, PIK3R1 / RFU, HNRNPA1 / Fold change vs veh, HNRNPA1 / RFU, RNF170 / Fold change vs veh, RNF170 / RFU, ZNF28 / Fold change vs veh, ZNF28 / RFU, RNGTT / Fold change vs veh, RNGTT / RFU, OGT / Fold change vs veh, OGT / RFU, BRD1 / Fold change vs veh, BRD1 / RFU, MARS / Fold change vs veh, MARS / RFU, ZNF655 / Fold change vs veh, ZNF655 / RFU, FAHD1 / Fold change vs veh, FAHD1 / RFU, BDP1 / Fold change vs veh, BDP1 / RFU, LRRCC1 / Fold change vs veh, LRRCC1 / RFU, ARID1A / Fold change vs veh, ARID1A / RFU, ZNF146 / Fold change vs veh, ZNF146 / RFU, ZNF330 / Fold change vs veh, ZNF330 / RFU, GPN3 / Fold change vs veh, GPN3 / RFU, C9orf123 / Fold change vs veh, C9orf123 / RFU, N4BP2L2 / Fold change vs veh, N4BP2L2 / RFU, ARFIP1 / Fold change vs veh, ARFIP1 / RFU, FAM179B / Fold change vs veh, FAM179B / RFU, BCL10 / Fold change vs veh, BCL10 / RFU, UHRF1BP1L / Fold change vs veh, UHRF1BP1L / RFU, BET1 / Fold change vs veh, BET1 / RFU, CNOT2 / Fold change vs veh, CNOT2 / RFU, ZNF268 / Fold change vs veh, ZNF268 / Fold change vs veh, ZNF507 / RFU, DGCR2 / Fold change vs veh, DGCR2 / RFU, WDSUB1 / Fold change vs veh, WDSUB1 / Fold change vs veh, HSP90B1 /// MIR3652 / RFU, ADSS / Fold change vs veh, ADSS / RFU, GK / Fold change vs veh, GK / RFU, ZNF148 / Fold change vs veh, ZNF148 / RFU, TAF9 / Fold change vs veh, TAF9 / RFU, SLC1A5 / Fold change vs veh, SLC1A5 / RFU, SLMO2 / Fold change vs veh, SLMO2 / RFU, ABCC4 / Fold change vs veh, ABCC4 / RFU, LOC101060439 /// RAP1B / Fold change vs veh, LOC101060439 /// RAP1B / RFU, RFX7 / Fold change vs veh, RFX7 / RFU, GTPBP10 / Fold change vs veh, GTPBP10 / RFU, CNEP1R1 / Fold change vs veh, CNEP1R1 / RFU, BIVM-ERCC5 /// ERCC5 / Fold change vs veh, BIVM-ERCC5 /// ERCC5 / RFU, ILF3 / Fold change vs veh, ILF3 / RFU 11762660_at / Fold change /veh 11762660_at / RFU VCAN (11757783_s_at) / Fold change /veh VCAN (11757783_s_at) / RFU DDX43 (11728927_at) / Fold change /veh DDX43 (11728927_at) / RFU KRT8 (11758188_x_at) / Fold change /veh KRT8 (11758188_x_at) / RFU NKD1 (11759106_at) / Fold change /veh NKD1 (11759106_at) / RFU SRD5A1 (11742802_a_at) / Fold change /veh SRD5A1 (11742802_a_at) / RFU TPSAB1 /// TPSB2 (11721975_s_at) / Fold change /veh TPSAB1 /// TPSB2 (11721975_s_at) / RFU GSTM3 (11746129_a_at) / Fold change /veh GSTM3 (11746129_a_at) / RFU IL23R (11737362_x_at) / Fold change /veh IL23R (11737362_x_at) / RFU TMEM51 (11727254_a_at) / Fold change /veh TMEM51 (11727254_a_at) / RFU PIWIL2 (11732686_x_at) / Fold change /veh PIWIL2 (11732686_x_at) / RFU ORM1 (11744905_x_at) / Fold change /veh ORM1 (11744905_x_at) / RFU CCDC152 (11743942_at) / Fold change /veh CCDC152 (11743942_at) / RFU ECM1 (11717891_a_at) / Fold change /veh ECM1 (11717891_a_at) / RFU IL23R (11748794_a_at) / Fold change /veh IL23R (11748794_a_at) / RFU TNFAIP8L3 (11732012_x_at) / Fold change /veh TNFAIP8L3 (11732012_x_at) / RFU MBOAT4 (11741988_at) / Fold change /veh MBOAT4 (11741988_at) / RFU 11764193_at / Fold change /veh 11764193_at / RFU TMEM53 (11763286_at) / Fold change /veh TMEM53 (11763286_at) / RFU MAGEB2 (11727129_at) / Fold change /veh MAGEB2 (11727129_at) / RFU TMEM200A (11744735_a_at) / Fold change /veh TMEM200A (11744735_a_at) / RFU CCDC152 (11751479_a_at) / Fold change /veh CCDC152 (11751479_a_at) / RFU FAM211A (11726209_a_at) / Fold change /veh FAM211A (11726209_a_at) / RFU RGS16 (11746705_a_at) / Fold change /veh RGS16 (11746705_a_at) / RFU VCAN (11755009_s_at) / Fold change /veh VCAN (11755009_s_at) / RFU RHOB (11743442_s_at) / Fold change /veh RHOB (11743442_s_at) / RFU RGS16 (11720943_a_at) / Fold change /veh RGS16 (11720943_a_at) / RFU RGS16 (11720944_at) / Fold change /veh RGS16 (11720944_at) / RFU, VPS4B / Fold change vs veh, VPS4B / RFU, CREB1 / Fold change vs veh, CREB1 / RFU, DNAJC13 / Fold change vs veh, DNAJC13 / RFU, GNAQ / Fold change vs veh, GNAQ / RFU, CDK5R1 / Fold change vs veh, CDK5R1 / RFU, ZRANB3 / Fold change vs veh, ZRANB3 / RFU, CUL4A / Fold change vs veh, CUL4A / RFU, CCNY / Fold change vs veh, CCNY / RFU, UFL1 / Fold change vs veh, UFL1 / RFU, COG3 / Fold change vs veh, COG3 / RFU, DIAPH2 / Fold change vs veh, DIAPH2 / RFU, SKA2 / Fold change vs veh, SKA2 / RFU, AFF3 / Fold change vs veh, AFF3 / RFU, LMF1 / Fold change vs veh, LMF1 / RFU, IPO11 / Fold change vs veh, IPO11 / RFU, DFFB / Fold change vs veh, DFFB / RFU, FOXP1 / Fold change vs veh, FOXP1 / RFU, CARD8 / Fold change vs veh, CARD8 / RFU, STRN3 / Fold change vs veh, STRN3 / RFU, ADK / Fold change vs veh, ADK / RFU, RASSF2 / Fold change vs veh, RASSF2 / RFU, WIPF1 / Fold change vs veh, WIPF1 / RFU, LARP1B / Fold change vs veh, LARP1B / RFU, RASA1 / Fold change vs veh, RASA1 / RFU, RB1 / Fold change vs veh, RB1 / RFU, PPFIA1 / Fold change vs veh, PPFIA1 / RFU, MAT2A / Fold change vs veh, MAT2A / RFU, CCT5 / Fold change vs veh, CCT5 / RFU, WDR92 / Fold change vs veh, WDR92 / RFU, CUX1 / Fold change vs veh, CUX1 / RFU, TTC7A / Fold change vs veh, TTC7A / RFU, TMEM135 / Fold change vs veh, TMEM135 / RFU, DEPTOR / Fold change vs veh, DEPTOR / RFU, CPM / Fold change vs veh, CPM / RFU, DNAJB6 / Fold change vs veh, DNAJB6 / RFU, CACNA2D3 / Fold change vs veh, CACNA2D3 / RFU, DTX4 / Fold change vs veh, DTX4 / RFU, TFCP2 / Fold change vs veh, TFCP2 / RFU, GMCL1 /// GMCL1P1 / Fold change vs veh, GMCL1 /// GMCL1P1 / RFU, AEBP2 / Fold change vs veh, AEBP2 / RFU, SNHG1 /// SNORD22 /// SNORD25 /// SNORD26 /// SNORD27 /// SNORD28 /// SNORD29 /// SNORD31 / Fold change vs veh, SNHG1 /// SNORD22 /// SNORD25 /// SNORD26 /// SNORD27 /// SNORD28 /// SNORD29 /// SNORD31 / Fold change (Aza/veh), C12orf56 (ProbeSet 11735607_a_at) / Fold change (ACY-1035/veh), C12orf56 (ProbeSet 11735607_a_at) / Fold change (Aza/veh), FGFR1OP (ProbeSet 11751329_s_at) / Fold change (ACY-1035/veh), FGFR1OP (ProbeSet 11751329_s_at) / Fold change (Aza/veh), VPS36 (ProbeSet 11739960_a_at) / Fold change (ACY-1035/veh), VPS36 (ProbeSet 11739960_a_at) / RFU SYPL1 (11715823_x_at) / Fold change /veh SYPL1 (11715823_x_at) / RFU IGFBP7 (11715501_s_at) / Fold change /veh IGFBP7 (11715501_s_at) / RFU REEP3 (11722064_at) / Fold change /veh REEP3 (11722064_at) / RFU IGLL1 (11728026_x_at) / Fold change /veh IGLL1 (11728026_x_at): dose or concentration left out as unconfirmed
# Conditions: MV-4-11 cells, 48 hours
smiles,measurement,value
Nc1ccc(-c2cccs2)cc1NC(=O)c1ccc2c(c1)cc(C1CC1)n2CCN1CCOCC1 [ACY-1035],Fold change /veh CCDC152 (11751479_a_at),1.05
